# Assay results from ChEMBL document CHEMBL1155013, “Design, synthesis, and evaluation of fused heterocyclic analogs of SCH 58261 as adenosine A2A receptor antagonists” (Bioorg Med Chem Lett, 2008).
# What was measured:
# Type in all cases: ADME, organism-based
# [1] = AUC (0 to 6 hrs) in rat at 3 mg/kg, po; design: time < 6 hr, dose 3 mg/kg, route oral; details: plasma
# [2] = Plasma clearance in rat at 3 mg/kg, po; design: dose 3 mg/kg, route oral
# [3] = Bioavailability in rat at 3 mg/kg, po; details: in vivo
# [4] = AUC in rat at 3 mg/kg, po; design: dose 3 mg/kg, route oral; details: plasma
# [5] = Half life in rat at 3 mg/kg, po; design: dose 3 mg/kg, route oral; details: in vivo
Structure (SMILES),AUC(0-t) at 6 h [1] [ng·h/mL],other results
COc1ccc2c(c1)CCN(CCn1ncc3c1nc(N)n1nc(-c4ccco4)nc31)C2,688,
COc1ccc2c(c1)CN(CCn1ncc3c1nc(N)n1nc(-c4ccco4)nc31)CC2,357,
COCCOc1cccc2c1CN(CCn1ncc3c1nc(N)n1nc(-c4ccco4)nc31)C2,215,
COc1ccc2c(c1)CN(CCn1ncc3c1nc(N)n1nc(-c4ccco4)nc31)C2,199,
Nc1nc2c(cnn2CCN2CCc3ccccc3C2)c2nc(-c3ccco3)nn12,60,
Nc1nc2c(cnn2CCN2CCc3ncc(C4CC4)cc3C2)c2nc(-c3ccco3)nn12,214,
Nc1nc2c(cnn2CCN2CCc3ncc(Br)cc3C2)c2nc(-c3ccco3)nn12,2020,
COCCOc1cnc2c(c1)CN(CCn1ncc3c1nc(N)n1nc(-c4ccco4)nc31)CC2,477,
COCCOc1ccc2c(c1)CCN(CCn1ncc3c1nc(N)n1nc(-c4ccco4)nc31)CC2,103,
Nc1nc2c(cnn2CCN2CCc3ncccc3C2)c2nc(-c3ccco3)nn12,1790,
Nc1nc2c(cnn2CCN2Cc3ccccc3C2)c2nc(-c3ccco3)nn12,287,
Nc1nc2c(cnn2CCN2CCc3ccccc3CC2)c2nc(-c3ccco3)nn12,48,
Nc1nc2c(cnn2CCN2CCc3nc(C(F)(F)F)ccc3C2)c2nc(-c3ccco3)nn12,1240,
COCCOc1cccc2c1CN(CCn1ncc3c1nc(N)n1nc(-c4ccco4)nc31)CC2,31,
Nc1nc2c(cnn2CCN2CCc3ncncc3C2)c2nc(-c3ccco3)nn12,467,
Cc1cnc2c(c1)CN(CCn1ncc3c1nc(N)n1nc(-c4ccco4)nc31)CC2,3490,CL/F [2]: 4.7 mL/min/kg; bioavailability [3]: 71%; AUC [4]: 7980 ng·h/mL; half-life [5]: 11.3 h
